Measurements published in US7718651B2, “Inhibitors of FtsZ and uses thereof” (priority 2002, dated 2010).

What follows are molecules tested on M. tuberculosis H37Rv (assay: microbe, parasite or virus in culture). Settings: not given.
Assay type: cell-based

In the case of `CCOC(=O)Nc1cc2c(c(N)n1)N=C(c1ccccc1)[C@H](C)N2` [Compound A108], the “% Inh” value was 45%.

Same assay, conditions: M. tuberculosis H37Rv, screen concentration 12.5 g/ml [sic], Table 8

In order of falling “% Inh” value:
1. CCOC(=O)Nc1cc2[nH]c(-c3ccccc3)nc2c(N(C)Cc2ccccc2)n1 [Compound A3]  99%
2. CCOC(=O)Nc1cc2[nH]c(CCc3ccccc3)nc2c(N(CCc2ccccc2)Cc2ccccc2)n1 [Compound A19]  98%
3. CCOC(=O)Nc1cc2[nH]c(-c3ccc(C(F)(F)F)cc3)nc2c(N(CCc2ccccc2)Cc2ccccc2)n1 [Compound A32]  97%
4. CCOC(=O)Nc1cc2nc(-c3ccc(Cl)cc3)[nH]c2c(N(CCc2ccccc2)Cc2ccccc2)n1 [Compound A27]  97%
5. CCOC(=O)Nc1cc(OCC)c2nc(-c3ccccc3)c(-c3ccccc3)nc2n1 [Compound A38]  95%
6. CCOC(=O)Nc1cc(N/N=C/c2ccccc2)c(N)c(N)n1 [Compound A54]  91%
7. CCOC(=O)Nc1cc(NC/C(=N/O)c2ccc(Cl)cc2Cl)c([N+](=O)[O-])c(N)n1 [Compound A58]  89%
8. CCOC(=O)Nc1cc(Nc2ccccc2)c([N+](=O)[O-])c(N)n1 [Compound A59]  88%
9. CCOC(=O)Nc1cc2c(c(N)n1)N=C(c1cccc(OC)c1)CS2 [Compound A68]  79%
10. CCOC(=O)Nc1cc2nc(-c3ccccc3)c(-c3ccccc3)nc2c(OCC)n1 [Compound A72]  75%
11. CCOC(=O)Nc1cc(N/N=C/c2ccccc2)c2[nH]c(=S)[nH]c2n1 [Compound A71]  75%
12. CCOC(=O)Nc1cc2c(c(N)n1)N=C(Cc1ccccc1)[C@H](C)N2 [Compound A74]  72%
13. CCOC(=O)Nc1cc2c(c(N)n1)N=C(c1ccccc1)CS2 [Compound A77]  71%
14. CCOC(=O)Nc1cc2[nH]c(C)nc2c(N(CCc2ccccc2)Cc2ccccc2)n1 [Compound A69]  71%
15. CCOC(=O)Nc1cc(NCCc2ccccc2)c([N+](=O)[O-])c(N)n1 [Compound A82]  68%
16. CCOC(=O)Nc1cc2c(c(N)n1)N=C(c1ccc(C)c(C)c1)CN2 [Compound A88]  64%
17. CCOC(=O)Nc1cc(Nc2ccc(Cl)cc2)c(N)c(N)n1 [Compound A92]  61%
18. CCOC(=O)Nc1cc2c(c(N)n1)N=C(c1ccc3ccccc3c1)CS2 [Compound A97]  58%
19. CCOC(=O)Nc1cc(NC(C)CCCN(CC)CC)c2ncc(-c3ccc(C(F)(F)F)cc3)nc2n1 (stereo not shown) [Compound A102]  54%
20. CCOC(=O)Nc1cc(NC(C)C(O)Cc2ccccc2)c([N+](=O)[O-])c(N)n1 (stereo not shown) [Compound A104]  51%
21. CCOC(=O)Nc1cc(NCc2ccccc2)c2nc[nH]c2n1 [Compound A111]  43%
22. CCOC(=O)Nc1cc(N)c([N+](=O)[O-])c(N[C@H](C)C(=O)c2ccccc2)n1 [Compound A112]  42%
23. CCOC(=O)Nc1cc2ncc(C(=O)N(C)c3ccccc3)nc2c(N)n1 [Compound A123]  31%
24. CCOC(=O)Nc1cc2[nH]c(-c3ccccc3)nc2c(N)n1 [Compound A125]  30%
25. CCOC(=O)Nc1cc2c(c(N)n1)N=C(c1ccccc1OC)CO2 [Compound A131]  25%
26. CCOC(=O)Nc1cc(N)c([N+](=O)[O-])c(NC(c2ccccc2)c2ccccc2)n1 [Compound A142]  18%
27. CCOC(=O)Nc1cc(NCC(=O)CN(C)c2ccccc2)c([N+](=O)[O-])c(N)n1 [Compound A143]  17%
28. CCOC(=O)Nc1cc2[nH]c(-c3ccc(O)cc3)nc2c(N)n1 [Compound A152]  13%
29. CCOC(=O)Nc1cc(NC(C)C(O)COc2ccccc2)c([N+](=O)[O-])c(N)n1 (stereo not shown) [Compound A155]  11%
30. CCCCNC(=O)Oc1ccc(C2=Nc3c(cc(NC(=O)OCC)nc3N)N[C@H]2C)cc1 [Compound A160]  10%
31. CCOC(=O)Nc1cc(N)c(N)c(N)n1 [Compound A156]  10%
32. COC(=O)Nc1cc(Cl)c([N+](=O)[O-])c(NC(=O)OC)n1 [Compound A165]  8%
33. CCOC(=O)Nc1cc(NCC(O)CN(C)c2ccccc2)c(N)c(NC(=O)OCC)n1 (stereo not shown) [Compound A169]  7%
34. CCOC(=O)Nc1cc(NC(c2ccccc2)c2ccccc2)c([N+](=O)[O-])c(NC(=O)OCC)n1 [Compound A175]  5%
35. CCOC(=O)Nc1cc(N[C@H](C)[C@H](O)c2ccc(O)cc2)c([N+](=O)[O-])c(N)n1 [Compound A173]  5%
36. COC(=O)Nc1cc(NC(C)/C(=N/O)c2ccccc2)c([N+](=O)[O-])c(N)n1 (stereo not shown) [Compound A176]  4%
37. CCOC(=O)Nc1cc(NC(C)/C(=N/O)c2ccc(O)cc2)c([N+](=O)[O-])c(N)n1 (stereo not shown) [Compound A186]  1%
38. CCOC(=O)Nc1cc(N(C)N)c([N+](=O)[O-])c(N)n1 [Compound A209]  0%
39. C=CCNc1cc(NC(=O)OCC)nc(N)c1[N+](=O)[O-] [Compound A279]  0%
40. CCOC(=O)Nc1cc(NC(c2ccccc2)c2ccccc2)c2nc[nH]c2n1 [Compound A216]  0%
41. CCOC(=O)Nc1cc(NCc2ccc(S(N)(=O)=O)cc2)c([N+](=O)[O-])c(N)n1 [Compound A244]  0%
42. CCOC(=O)Nc1cc2c(c(N)n1)N=C(c1ccc(OC)cc1)CO2 [Compound A192]  0%
43. CCOC(=O)Nc1cc(NCCc2ccc(S(=O)(=O)N(CC)CC)cc2)c2ncc(C)nc2n1 [Compound A255]  0%
44. CCOC(=O)Nc1cc(N)c([N+](=O)[O-])c(NCC(O)CN(C)c2ccccc2)n1 (stereo not shown) [Compound A274]  0%
45. CCOC(=O)Nc1cc2[nH]c(-c3ccccc3)nc2c(Cl)n1 [Compound A219]  0%
46. CCOC(=O)Nc1cc2c(c(N)n1)N=C(c1cccc(OC)c1)CO2 [Compound A190]  0%
47. CCOC(=O)Nc1nc(NC(=O)OCC)c2c(c1N)NC(C)C(c1ccccc1)=N2 (stereo not shown) [Compound A194]  0%
48. CCOC(=O)Nc1cc(NC(C)CCCN(CC)CC)c2nccnc2n1 (stereo not shown) [Compound A253]  0%
49. CCOC(=O)Nc1cc(NC/C(=N/O)c2ccc(OC)c(OC)c2OC)c([N+](=O)[O-])c(N)n1 [Compound A212]  0%
50. CCOC(=O)Nc1cc(NC(c2ccccc2)c2ccccc2)c2nc[nH]c2n1.Cl [Compound A280]  0%
51. CCOC(=O)Nc1cc(NCC(=O)c2ccc(C)c(C)c2)c([N+](=O)[O-])c(N)n1 [Compound A208]  0%
52. CCOC(=O)Nc1cc2ncc(C)nc2c(NC(=O)OCC)n1 [Compound A276]  0%
53. CCOC(=O)Nc1cc(NC(c2ccccc2)c2ccccc2)c2nc(-c3cc(OC)c(OC)c(OC)c3)cnc2n1 [Compound A265]  0%
54. CCOC(=O)Nc1cc2c([nH]c(=S)n2/N=C/c2ccc3c(c2)OCO3)c(N)n1 [Compound A241]  0%
55. CCOC(=O)Nc1cc(Nc2ccc(Cl)cc2)c2ncc(-c3ccc(Cl)cc3)nc2n1 [Compound A258]  0%
56. CCOC(=O)Nc1cc(Nc2ccc(Cl)cc2)c([N+](=O)[O-])c(N)n1 [Compound A256]  0%
57. CCOC(=O)Nc1cc2c(c(N)n1)N=C(c1ccc([N+](=O)[O-])cc1)CO2 [Compound A225]  0%
58. CCOC(=O)Nc1cc(NCCc2ccc(S(=O)(=O)N(CC)CC)cc2)c2ncc(-c3ccc(Cl)cc3)nc2n1 [Compound A259]  0%
59. CCOC(=O)Nc1cc(Cl)c2nn[nH]c2n1 [Compound A215]  0%
60. CCOC(=O)Nc1cc(NC(c2ccccc2)c2ccccc2)c([N+](=O)[O-])c(O)n1 [Compound A298]  0%
61. CCOC(=O)Nc1cc2c(c(N)n1)N=C(c1ccc(O)cc1)C(C)N2 (stereo not shown) [Compound A197]  0%
62. CCOC(=O)Nc1cc2[nH]c(-c3cccc(C)c3)nc2c(N(CCc2ccccc2)Cc2ccccc2)n1 [Compound A297]  0%
63. C=CCNc1cc(NC(=O)OCC)nc(NC(=O)OCC)c1[N+](=O)[O-] [Compound A281]  0%
64. CCOC(=O)Nc1cc(N)c2nc(CN(C)c3ccccc3)cnc2n1 [Compound A273]  0%
65. CCOC(=O)Nc1ccc(N)c(N)n1 [Compound A236]  0%
66. CCOC(=O)Nc1cc(NC(C)CCCN(CC)CC)c2ncc(C)nc2n1 (stereo not shown) [Compound A254]  0%
67. CCOC(=O)Nc1cc2c(c(N)n1)[N+](=O)OC(c1ccccc1)N[N-]2 (stereo not shown) [Compound A214]  0%
68. CCOC(=O)Nc1cc(NC(c2ccccc2)c2ccccc2)c2ncc(-c3ccc(Cl)cc3)nc2n1 [Compound A261]  0%
69. CCOC(=O)Nc1cc(NCC(=O)c2ccc([N+](=O)[O-])cc2)c([N+](=O)[O-])c(N)n1 [Compound A220]  0%
70. CCOC(=O)N(Cc1ccc(S(N)(=O)=O)cc1)c1cc(Cl)c([N+](=O)[O-])c(N)n1 [Compound A294]  0%
71. Nc1nc(NC(=O)OCc2ccccc2)cc(Cl)c1[N+](=O)[O-] [Compound A286]  0%
72. CCCCC(Nc1cc(NC(=O)OCC)nc(N)c1[N+](=O)[O-])C(C)O (stereo not shown) [Compound A302]  −1%
73. CCOC(=O)Nc1cc(NCCC(=O)c2ccccc2)c([N+](=O)[O-])c(N)n1 [Compound A308]  −8%
74. CCOC(=O)Nc1cc(NC(C)[C@H](O)c2ccccc2)c(N)c(N)n1 (stereo partly shown) [Compound A312]  −19%

Same assay, conditions: Mycobacterium tuberculosis; M. tuberculosis H37Rv; at 12.5% μg/ml (so in the source); read-out: Primary Screen PI (% inhibition of growth)

In order of falling inhibition of growth at 12.5 µg/mL:
1. CCOC(=O)Nc1cc2nc(-c3ccccc3)c(-c3ccccc3)nc2c(OCC)n1 [Compound 3491-23, (5-Ethoxy-2,3-diphenyl-pyrido[3,4-b]pyrazin-7-yl)-carbamic acid ethyl ester]  95%
2. CCOC(=O)Nc1cc2nc(-c3ccccc3)c(-c3ccccc3)nc2c(N)n1 [Compound 3302-89F, (5-Amino-2,3-diphenyl-pyrido[3,4-b]pyrazin-7-yl)-carbamic acid ethyl ester]  92%

Same assay, conditions: in words

`CCOC(=O)Nc1cc2nc(-c3ccccc3)c(-c3ccccc3)nc2c(OCC)n1` [Compound 3491-23, (5-Ethoxy-2,3-diphenyl-pyrido[3,4-b]pyrazin-7-yl)-carbamic acid ethyl ester] was tested, and the “activity against M. tuberculosis H37Rv in the primary screen” value was “demonstrated activity”.
`CCOC(=O)Nc1cc2nc(-c3ccccc3)c(-c3ccccc3)nc2c(N)n1` [Compound 3302-89F, (5-Amino-2,3-diphenyl-pyrido[3,4-b]pyrazin-7-yl)-carbamic acid ethyl ester] was tested, and the “activity against M. tuberculosis H37Rv in the primary screen” value was “demonstrated activity”.
